The subject of this assay is SARS-CoV-2. It is filed as cell-based. To be noted: concentration reducing replication to 50% vs control, read-out: Antiviral activity.

Regarding `CCC(C)C1OC2(CCC1C)CC1CC(CC=C(C)C(OC3CC(OC)C(OC4CC(OC)C(O)C(C)O4)C(C)O3)C(C)C=CC=C3COC4C(=NO)C(C)CC(C(=O)O1)C34O)O2` (centres unmarked) [Compound I-1], the IC50 was < 1000 nM. The same measure for `CCC(C)C1OC2(CCC1C)CC1CC(CC=C(C)C(OC3CC(OC)C(OC4CC(OC)C(O)C(C)O4)C(C)O3)C(C)C=CC=C3COC4C(=NOCC(=O)NC)C(C)=CC(C(=O)O1)C34O)O2` (centres unmarked) [Compound I-124]: < 1000 nM.

(Values after patent EP4640688A1, “AVERMECTIN DERIVATIVE” (Meiji Seika Pharma Co., Ltd., priority 2022, dated 2024).)
